Data set [1] concerns Candida albicans. Kind of data set: Antifungal activity against Candida albicans 10/15 assessed as fungal growth inhibition measured after 24 hrs by microdilution assay. The data set is classed as functional. For orientation: Broth dilution looks for growth in wells or tubes with falling amounts of substance.
Data set [2] relates to Candida albicans. Kind of data set: Antifungal activity against Candida albicans 527/14 assessed as fungal growth inhibition measured after 24 hrs by microdilution assay. The format is functional.
Data set [3] deals with Candida albicans. The experiment in a line: Antifungal activity against Candida albicans 13/15 assessed as fungal growth inhibition measured after 24 hrs by microdilution assay. The format is functional.
The test system of data set [4] is Candida albicans. The experiment in a line: Antibiofilm activity against Candida albicans 475/15 assessed as inhibition of biofilm formation measured after 24 hrs by crystal violet staining based analysis relative to control. The arrangement: scale not given: the % may be the effect or the level left. The data set is classed as functional.
For data set [5], the system named is Candida albicans. Kind of data set: Antifungal activity against Candida albicans 475/15 assessed as fungal growth inhibition measured after 24 hrs by microdilution assay. The data set is classed as functional.
Data set [6] deals with Influenza A virus. The experiment in a line: Antiviral activity against Influenza A virus H1N1/pdm09 infected in MDCK cells pretreated with compound for 1 hr followed virus infection measured after 48 hrs. The format is functional, organism-based.
Data set [7] is described as follows: Cytotoxicity against MDCK cells assessed as reduction in cell viability incubated for 48 hrs by MTT assay. The data set is classed as toxicity, cell-based, Canis lupus familiaris. As to conditions: dog, read-out: CTD50. Background: Formazan colour is commonly taken as a measure of viable cells.
Data set [8] in a line: Selectivity index, ratio of CTD50 for cytotoxicity against MDCK cells to EC50 for antiviral activity against Influenza A H1N1/pdm09 infected in MDCK cells. The data set is classed as toxicity, cell-based. As to conditions: dog, read-out: Selectivity Index.
The test system of data set [9] is Influenza A virus. The experiment in a line: Antiviral activity against influenza A/PR/8/34 H1N1 virus infected in MDCK cells assessed as cell growth inhibition measured after 48 hrs by SRB assay. The data set is classed as functional, organism-based. As to conditions: A/PR/8/34 H1N1, MDCK.
A short description of data set [10]: Cytotoxicity against MDCK cells assessed as reduction in cell viability incubated for 48 hrs by SRB assay. The format is toxicity, cell-based, Canis lupus familiaris. As to conditions: dog.
The test system of data set [11] is Staphylococcus aureus. Kind of data set: Antibiofilm activity against heteroresistant vancomycin-intermediate Staphylococcus aureus ATCC 700698 assessed as inhibition of biofilm formation incubated for 24 hrs by crystal violet staining based assay. The format is functional, organism-based. The settings on record: ATCC 700698, 24 h.
Data set [12] concerns Acinetobacter baumannii. Kind of data set: Antibacterial activity against carbapenem-resistant Acinetobacter baumannii AMC-AB 643 assessed as fold reduction in ceftazidime MIC incubated for 20 hrs by checkerboard synergy test. The format is functional.
Data set [13] can be described thus: Antioxidant activity assessed as DPPH radical scavenging activity up to 2 mM relative to control. The format is functional.
The test system of data set [14] is Staphylococcus aureus. Kind of data set: Antibiofilm activity against methicillin sensitive Staphylococcus aureus ATCC 29213 assessed as inhibition of biofilm formation incubated for 24 hrs by crystal violet staining based assay. The data set is classed as functional, organism-based. The settings on record: ATCC 29213, 24 h.
For data set [15], the system named is MCF7. The experiment in a line: Induction of apoptosis in human MCF7 cells assessed as early apoptotic cells at 50 uM measured after 12 hrs by annexin V-FITC/propidium iodide staining based flow cytometry relative to control. The data set is classed as functional. A general note: A flow cytometer gives signals particle by particle.
The test system of data set [16] is Staphylococcus aureus. Kind of data set: Antibiofilm activity against methicillin resistant Staphylococcus aureus AMCSA 5016 assessed as inhibition of biofilm formation incubated for 24 hrs by crystal violet staining based assay. The format is functional, organism-based. As to conditions: AMCSA 5016, 24 h.
The subject of data set [17] is Pseudomonas aeruginosa. The experiment in a line: In vivo antibacterial activity against carbapenem-susceptible Pseudomonas aeruginosa ATCC 27853 infected in CD-1 mouse assessed as mouse survival at 40 mg/kg per day administered for 7 days in presence of ceftazidime. The format is functional. The settings on record: time 7 day.
In data set [18] the test system is Pseudomonas aeruginosa. The experiment in a line: Antibacterial activity against carbapenem-resistant Pseudomonas aeruginosa CCARM2321 assessed as fold reduction in ceftazidime MIC incubated for 20 hrs by checkerboard synergy test. The format is functional.
Data set [19] deals with Staphylococcus aureus. The experiment in a line: Antibiofilm activity against vancomycin-intermediate Staphylococcus aureus ATCC 700699 assessed as inhibition of biofilm formation incubated for 24 hrs by crystal violet staining based assay. The settings on record: ATCC 700699, 24 h. The data set is classed as functional, organism-based.

Data on four compounds can be found in ChEMBL document CHEMBL5126518, “Quercetin derivatives: Drug design, development, and biological activities, a review” (Eur J Med Chem, 2022).

Converted amounts (≈) assume the structure as drawn. A value given as a limit tells only on which side of the number the result lay.

Regarding `O=c1c(O[C@@H]2O[C@H](CO)[C@@H](O)[C@H](O)[C@H]2O)c(-c2ccc(O)c(O)c2)oc2cc(O)cc(O)c12` [ISOQUERCETIN], the MIC in data set [1], in [2], in data set [3] and in data set [5] was 37.5 µg/mL (≈ 80.8 µM) in each case. In data set [4], the Activity turned out to be 76%.
As to `CCOC1(Br)C(=O)c2c(O)c(Br)c(O)c(Br)c2OC1(Br)c1cc(O)c(O)c(Br)c1` (centres undefined), the EC50 in data set [6] worked out at 6 µg/mL (≈ 8.26 µM). In addition, in data set [7], the CC50 at 48 h stood at 97.7 µg/mL (≈ 134 µM). The selectivity ratio in data set [8] was 16.
`O=c1c(O)c(-c2ccc(O)c(O)c2)oc2cc(O[C@H]3O[C@H](CO)[C@@H](O)[C@H](O)[C@H]3O)cc(O)c12`: the IC50 in [9] is 2.1 µg/mL (≈ 4.52 µM). Further, in data set [10], the CC50 at 48 h is over 100 µg/mL.
`O=c1c(O)c(-c2ccc(F)c(F)c2)oc2cc(O)cc(O)c12`: the IC50 in data set [11], in data set [14], in [16] and in data set [19] was 1.8 µg/mL (≈ 5.88 µM) each time. The “fold change (FC)” value in data set [12] worked out at 4; in [18], 8. The Activity amounted to 50% in [13], 47.7% in data set [15] and 20% in [17].

As a reminder, the MIC is the smallest concentration in the dilution series that meets the test's criterion for growth inhibition. As usually defined, the EC50 is the concentration giving half of the maximal effect. Broadly, the IC50 is the midpoint of a concentration-inhibition curve.
